Laboratory results: PMC10145367, “Acute and Transgenerational Effects of Non-Steroidal Anti-Inflammatory Drugs on Daphnia magna” (Toxics, 2023)
≈ marks a conversion by molar mass, not a printed value. Read-outs that look alike come from different tables or passages of the source.

Assays:
[1] = test system: Daphnia magna; conditions: cited from earlier work
[2] = test system: alkaline phosphatase (ALP); set-up: method as in PMID 36835510; conditions: chronic exposure of daphnids; ref [30]; cited from earlier work
[3] = test system: acid phosphatase (ACP); set-up: method as in PMID 36835510; conditions: chronic exposure of daphnids; ref [30]; cited from earlier work
[4] = test system: peptidase (PEP); conditions: cited from earlier work
[5] = test system: Daphnia magna; experiment: Feeding assay (ingestion of fluorescent microparticles); assay type: in vivo; conditions: neonates, 1 mg/L for 24 h
Protocol: After 24 h, twenty […] transferred in a 12-well plate with 6 mL OECD containing the carboxylate-modified polystyrene, fluorescent red microparticles (2.0 μm mean particle size) at a concentration of 13 mg/L. The animals were exposed to the microplastic for up to 90 min, and media was collected every 15 min to estimate the removed microparticles by fluorescence at Ex 560 Em 590 nm using a TECAN plate reader. The concentration of microparticles in the media was optimized to ensure an excess of microparticles for the accurate quantification of ingestion. Furthermore, we have extensively tested these particles, which show no toxicity to the […] for the short exposure periods used. We performed control experiments with neonates, as they would be more sensitive, for even up to 10 h to microplastics at even higher concentrations (up to 52 mg/L), and all animals from all experiments following the feeding assay were alive and healthy. Fluorescence was expressed to the amount of ingested microparticles using a standard curve. To confirm the ingestion of microparticles in the gut of […], animals were imaged with a stereoscope and fluorescence microscopy using the TRITC filter for carboxyl functionalized particles. […] The animals were fed daily with 2 mL of fresh algae (Chlamydomonas reinhardtii) with a concentration of 6 million cells/mL. […]

[6] = test system: acid phosphatase (ACP); experiment: Acid phosphatase activity in daphnid homogenate after chronic/transgenerational exposure; assay type: in vivo, Daphnia magna
[7] = test system: alkaline phosphatase (ALP)
Protocol: (§1) Chronic exposure was performed at 1 mg/L of each NSAID and their 1:1 mixture separately, which was selected as a non-lethal concentration. For enzyme activities in chronic and transgenerational exposures, neonates were cultured for two consecutive generations and following a 21-day recovery period (Figure 1B). […] Media and NSAIDs were renewed twice a week. Although the concentration of NSAIDs was not measured throughout the exposure, their renewal twice a week was sufficient to exert their action. […] Daphnids were fed daily with 2 mL fresh algae (C. reinhardtii) with a concentration of 6 million cells/mL, and a seaweed extract (Ascophylum nodosum) was supplemented only on the days of media change.
(§2) Five 7, 14, and 21-day-old animals were used per biological replicate and homogenized in 0.5 mL ddH2O using a pestle homogenizer. The homogenate was cleared by centrifugation (12,000× g for 5 min at 5 °C), and the clear supernatant was collected and used to assess the enzyme activity as described elsewhere. 200 μL appropriately diluted sample in buffer was assessed for the activity of phosphatases (in 100 mM acetic acid pH 4.5 for acid phosphatase or 100 mM boric acid pH 9.8 for alkaline phosphatase) using 50 μL of the substrate p-nitrophenyl phosphate (8 mM) and monitoring the production of p-nitrophenol at 405 nm after its alkalinization (with 50 μL 4M NaOH). In addition, the activities of β-galactosidase and lipase were measured with the same experimental conditions by the generation of nitrophenol from the catalysis of o-nitrophenyl-β-galactoside or p-nitrophenyl butyrate, respectively, but in phosphate buffer pH 7.2. Glutathione-S-transferase (GST) activity was assessed by the reaction of reduced glutathione with 1-chloro-2,4-dinitrobenzene. 200 μL appropriately diluted sample in phosphate buffer pH 7.2 was mixed with 50 μL 2 mM CDNB, and 6 mM reduced glutathione, and the formation of the complex was measured continuously at 340 nm and converted to units of activity with the extinction coefficient. Protein was quantified by an ultrasensitive Bradford protocol to normalize the results.

[8] = test system: glutathione-S-transferase (GST)
Protocol: as §1, §2

[9] = test system: β-galactosidase (β-gal)
Protocol: as §1, §2

[10] = test system: lipase (LIP); experiment: Lipase activity in daphnid homogenate after chronic/transgenerational exposure; assay type: in vivo, Daphnia magna
[11] = test system: peptidase (PEP); experiment: Peptidase activity in daphnid homogenate after chronic/transgenerational exposure; assay type: in vivo, Daphnia magna
[12] = test system: D. magna; conditions: ref [21], cited from earlier work
[13] = cited from earlier work
[14] = test system: GST; conditions: 28-day exposure to 25 mg/L; ref [53]; cited from earlier work
[15] = test system: GST; set-up: method as in PMID 32259738; conditions: exposure for 14 days; ref [71]; cited from earlier work
[16] = test system: Daphnia magna; experiment: Acute toxicity (immobilization) of neonates, 24 h toxicity curves; conditions: for EC50: Daphnia magna, 24 h; for EC1 / EC5 / EC10 / EC20: neonates, 24 h exposure, immobilization
[17] = test system: Thamnocephalus platyurus; conditions: after 24 h of exposure; ref [3],[5]; cited from earlier work
[18] = test system: Oryzias latipes; set-up: method as in PMID 27234514, PMID 19336980; conditions: after 24 h of exposure; ref [3],[5]; cited from earlier work
[19] = test system: D. magna; set-up: method as in PMID 27234514, PMID 19336980; conditions: after 24 h of exposure; ref [3],[5]; cited from earlier work
[20] = test system: male zebrafish (Danio rerio); set-up: method as in PMID 29027214; conditions: 96 h, ref [13]; cited from earlier work
[21] = test system: patients; set-up: method as in PMID 26865183; conditions: patients receiving it; ref [11]; cited from earlier work
[22] = test system: glutathione-S-transferase (GST); set-up: method as in PMID 32806449; conditions: intermediate concentrations (1.2 and 6 μg/L); ref [67]; cited from earlier work
[23] = 1 mg/L, age 7 days, first generation
[24] = 1 mg/L, age 21 days, 2nd generation
[25] = 1 mg/L, age 21 days, first generation
[26] = age 21 days, 3rd generation recovery in clean OECD media after two generations at 1 mg/L
[27] = 1 mg/L, age 14 days, first generation

SMILES: O=C(O)Cc1ccccc1Nc1c(Cl)cccc1Cl [Diclofenac]
- effect on feeding rate ([1]; neonates of D. magna, ref [67],[68]): reduce the feeding rate
- effect on activity of ALP [2]: reduced
- effect on activity of ACP [3]: reduced
- effect on activity of PEP ([4]; chronic exposure of daphnids, ref [30]): increasing

SMILES: CC(C)Cc1ccc(C(C)C(=O)O)cc1 (stereo not drawn) [Ibuprofen]
- reduction of feeding rate compared to DMSO [5]: 30%
- ACP enzyme activity [6, 23]: 8.14 ± 0.33 units/mg protein
- ACP enzyme activity [6, 24]: 2.78 ± 0.21 units/mg protein
- ACP enzyme activity [6, 25]: 3.09 ± 0.04 units/mg protein
- ACP enzyme activity [6, 26]: 3.24 ± 0.47 units/mg protein
- ALP enzyme activity [7, 23]: 6.55 ± 0.26 units/mg protein
- ALP enzyme activity [7, 27]: 2.63 ± 0.14 units/mg protein
- ALP enzyme activity [7, 24]: 3.27 ± 0.15 units/mg protein
- change of ALP activity compared with DMSO [7, 24]: −10%
- GST enzyme activity [8, 23]: 95.6 ± 10 munits/mg protein
- GST enzyme activity [8, 27]: 151.7 ± 11.7 munits/mg protein
- GST enzyme activity [8, 24]: 123.5 ± 2.1 munits/mg protein
- change of GST activity compared with DMSO [8, 24]: +18%
- GST enzyme activity [8, 25]: 67.6 ± 4.4 munits/mg protein
- change of β-gal activity compared with DMSO [9, 23]: −17%
- β-gal enzyme activity [9, 23]: 1.26 ± 0.06 units/mg protein
- β-gal enzyme activity [9, 27]: 2.08 ± 0.75 units/mg protein
- change of β-gal activity compared with DMSO [9, 24]: −17%
- β-gal enzyme activity [9, 24]: 3.93 ± 0.22 units/mg protein
- β-gal enzyme activity [9, 25]: 5.13 ± 0.25 units/mg protein
- LIP enzyme activity [10, 23]: 123.76 ± 2.26 units/mg protein
- change of LIP activity compared with DMSO [10, 23]: −10%
- LIP enzyme activity [10, 27]: 148.12 ± 37.62 units/mg protein
- LIP enzyme activity [10, 24]: 47.53 ± 1.66 units/mg protein
- change of LIP activity compared with DMSO [10, 24]: −28%
- LIP enzyme activity [10, 25]: 78.43 ± 4.27 units/mg protein
- LIP enzyme activity [10, 26]: 53.32 ± 6.51 units/mg protein
- PEP enzyme activity [11, 23]: 29.54 ± 7.34 units/mg protein
- PEP enzyme activity [11, 27]: 1.93 ± 0.27 units/mg protein
- PEP enzyme activity [11, 25]: 10.52 ± 1.39 units/mg protein
- PEP enzyme activity [11, 26]: 4.61 ± 0.35 units/mg protein
- survival ([12]; neonates exposed to 20 mg/L and 40 mg/L for 14 days): unaffected
- reduction of survival ([12]; neonates exposed to 80 mg/L for 14 days): 19%
- average strength maintained ([13]; for 5 months, ref [39]): > 90%
- time stable ([13]; room temperature, ref [37],[38]): 15 days
- effect on activity of GST [14]: increase in the activity of GST
- effect on activity of GST [15]: reduced the activity of GST
- EC50 [16]: 17.8 µg/mL (≈ 86.3 µM)
- EC1 [16]: 8.62 mg/L
- EC5 [16]: 11.19 mg/L
- EC10 [16]: 12.59 µg/mL (≈ 61 µM)
- EC20 [16]: 14.3 µg/mL (≈ 69.3 µM)

SMILES: COc1ccc2c(c1)c(CC(=O)O)c(C)n2C(=O)c1ccc(Cl)cc1 [Indomethacin]
- reduction of feeding rate compared to DMSO [5]: 35%
- ACP enzyme activity [6, 23]: 6.82 ± 0.51 units/mg protein
- ACP enzyme activity [6, 27]: 6.02 ± 0.71 units/mg protein
- ACP enzyme activity [6, 24]: 2.67 ± 0.15 units/mg protein
- ACP enzyme activity [6, 25]: 2.84 ± 0.13 units/mg protein
- change of ACP activity compared with DMSO [6, 25]: −10%
- ACP enzyme activity [6, 26]: 3.21 ± 0.28 units/mg protein
- ALP enzyme activity [7, 23]: 6.22 ± 0.21 units/mg protein
- change of ALP activity compared with DMSO [7, 23]: −13%
- ALP enzyme activity [7, 27]: 3.05 ± 0.29 units/mg protein
- ALP enzyme activity [7, 24]: 3.8 ± 0.18 units/mg protein
- ALP enzyme activity [7, 25]: 5.05 ± 0.17 units/mg protein
- ALP enzyme activity [7, 26]: 4.16 ± 0.24 units/mg protein
- GST enzyme activity [8, 23]: 107.9 ± 11.6 munits/mg protein
- GST enzyme activity [8, 27]: 144.7 ± 5.4 munits/mg protein
- GST enzyme activity [8, 24]: 94.6 ± 2.9 munits/mg protein
- change of GST activity compared with DMSO [8, 24]: −9%
- GST enzyme activity [8, 25]: 52.3 ± 1.5 munits/mg protein
- GST enzyme activity [8, 26]: 154.7 ± 4.2 munits/mg protein
- change of β-gal activity compared with DMSO [9, 23]: −40%
- β-gal enzyme activity [9, 23]: 0.91 ± 0.14 units/mg protein
- β-gal enzyme activity [9, 27]: 2.23 ± 0.39 units/mg protein
- β-gal enzyme activity [9, 24]: 4.7 ± 0.23 units/mg protein
- change of β-gal activity compared with DMSO [9, 25]: +11%
- β-gal enzyme activity [9, 25]: 5.93 ± 0.19 units/mg protein
- β-gal enzyme activity [9, 26]: 5.03 ± 0.44 units/mg protein
- LIP enzyme activity [10, 23]: 72.94 ± 11.09 units/mg protein
- change of LIP activity compared with DMSO [10, 23]: −47%
- LIP enzyme activity [10, 27]: 193.84 ± 25.81 units/mg protein
- LIP enzyme activity [10, 24]: 56.41 ± 3.09 units/mg protein
- change of LIP activity compared with DMSO [10, 24]: −15%
- LIP enzyme activity [10, 25]: 90.86 ± 0.42 units/mg protein
- LIP enzyme activity [10, 26]: 51.19 ± 2.04 units/mg protein
- PEP enzyme activity [11, 23]: 27.26 ± 5.01 units/mg protein
- PEP enzyme activity [11, 27]: 1.94 ± 0.06 units/mg protein
- PEP enzyme activity [11, 24]: 6.81 ± 0.26 units/mg protein
- change of PEP activity compared with DMSO [11, 24]: −14%
- PEP enzyme activity [11, 25]: 10.82 ± 0.6 units/mg protein
- change of PEP activity compared with DMSO [11, 25]: +16%
- PEP enzyme activity [11, 26]: 5.33 ± 0.49 units/mg protein
- lethal concentration [17]: 16.14 mg/L
- lethal concentration [18]: 81.92 mg/L
- lethal concentration [19]: 22.38 mg/L
- EC50 [20]: 76.30 µg/mL (≈ 213 µM)
- patients with adverse effects [21]: 30–60%
- EC50 [16]: 17.5 µg/mL (≈ 48.8 µM)
- EC1 [16]: 6.61 mg/L
- EC5 [16]: 9.37 mg/L
- EC10 [16]: 10.97 µg/mL (≈ 30.7 µM)
- EC20 [16]: 13.02 µg/mL (≈ 36.4 µM)

SMILES: CC(=O)Oc1ccccc1C(=O)O [acetylsalicylic acid]
- effect on activity of PEP ([4]; acute exposure of daphnids, ref [28]): decreased

SMILES: CC(C(=O)O)c1cccc(C(=O)c2ccccc2)c1 (stereo not drawn) [ketoprofen]
- effect on feeding ([1]; D5 daphnids, ref [67]): did not affect the feeding
- effect on activity of GST [22]: increased the activity of GST
